The values below come from ChEMBL document CHEMBL1150098, “Makaluvamines H-M and damirone C from the pohnpeian sponge Zyzzya fuliginosa” (J Nat Prod, 1995).

The source made the active and inactive calls. The calls are words filed in the database; no cut-off is given here.

The target of experiment [1] is DNA topoisomerase 2-alpha (Homo sapiens) (UniProt P11388). Kind of experiment: Inhibition of DNA topoisomerase 2.
Experiment [2] has as its system HCT-116. Kind of experiment: Cytotoxicity against human HCT116 cells. The format is functional, cell-based.

Sequence of DNA topoisomerase 2-alpha (Homo sapiens) (P11388 whole entry): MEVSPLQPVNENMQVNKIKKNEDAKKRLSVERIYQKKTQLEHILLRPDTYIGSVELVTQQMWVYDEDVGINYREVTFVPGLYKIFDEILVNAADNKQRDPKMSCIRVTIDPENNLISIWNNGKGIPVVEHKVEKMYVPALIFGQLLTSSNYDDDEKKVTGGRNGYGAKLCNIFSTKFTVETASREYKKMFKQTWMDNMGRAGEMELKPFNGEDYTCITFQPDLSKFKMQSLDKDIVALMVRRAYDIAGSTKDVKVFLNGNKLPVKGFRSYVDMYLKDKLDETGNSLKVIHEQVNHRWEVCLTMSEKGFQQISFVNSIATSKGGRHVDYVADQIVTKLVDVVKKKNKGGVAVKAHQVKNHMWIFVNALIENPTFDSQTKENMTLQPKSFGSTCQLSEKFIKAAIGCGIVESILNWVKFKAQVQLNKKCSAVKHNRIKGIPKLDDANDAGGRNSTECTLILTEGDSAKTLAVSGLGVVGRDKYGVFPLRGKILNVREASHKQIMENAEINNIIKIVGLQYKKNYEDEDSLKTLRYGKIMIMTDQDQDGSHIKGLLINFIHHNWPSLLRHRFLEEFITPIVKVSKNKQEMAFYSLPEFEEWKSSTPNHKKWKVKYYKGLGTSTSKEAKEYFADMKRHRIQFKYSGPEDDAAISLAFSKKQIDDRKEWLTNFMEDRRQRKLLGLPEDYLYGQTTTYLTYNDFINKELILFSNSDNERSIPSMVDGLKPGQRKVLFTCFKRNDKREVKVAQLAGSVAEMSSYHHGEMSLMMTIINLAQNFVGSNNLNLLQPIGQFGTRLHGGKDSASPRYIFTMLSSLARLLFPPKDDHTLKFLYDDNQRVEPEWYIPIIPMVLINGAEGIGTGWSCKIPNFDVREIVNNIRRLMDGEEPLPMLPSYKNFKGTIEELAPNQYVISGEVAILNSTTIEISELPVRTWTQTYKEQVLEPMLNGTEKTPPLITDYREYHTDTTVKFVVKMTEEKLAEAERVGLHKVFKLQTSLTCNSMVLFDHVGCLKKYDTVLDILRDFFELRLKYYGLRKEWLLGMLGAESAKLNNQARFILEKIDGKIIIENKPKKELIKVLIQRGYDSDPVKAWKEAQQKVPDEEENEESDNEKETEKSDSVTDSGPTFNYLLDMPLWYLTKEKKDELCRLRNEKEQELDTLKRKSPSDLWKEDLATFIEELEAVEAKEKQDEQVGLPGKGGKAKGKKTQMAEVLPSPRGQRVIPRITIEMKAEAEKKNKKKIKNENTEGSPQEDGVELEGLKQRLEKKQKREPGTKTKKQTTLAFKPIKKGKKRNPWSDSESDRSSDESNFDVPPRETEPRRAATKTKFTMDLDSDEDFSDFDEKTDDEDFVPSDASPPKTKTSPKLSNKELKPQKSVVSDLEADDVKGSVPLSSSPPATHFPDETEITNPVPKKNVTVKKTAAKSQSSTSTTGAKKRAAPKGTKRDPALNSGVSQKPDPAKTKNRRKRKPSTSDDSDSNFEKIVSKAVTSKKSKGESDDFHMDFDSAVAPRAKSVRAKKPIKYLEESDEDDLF

Turning to `C[N+]1=C2C=C(N)C(=O)c3[nH]cc(c32)CC1`, the outcome in experiment [1] and in experiment [2] was Active.

For the compound `Cn1cc2c3c1C(=O)C(N)=CC3=NCC2`, the result in experiment [1] and in experiment [2] was Active. For the compound `C[N+]1=C2C=C(N/C=C/c3ccc(O)cc3)C(=O)c3[nH]cc(c32)CC1`, the outcome in experiment [1] was inactive. The result in experiment [2] was Active. On to `Cn1cc2c3c1C(=O)C(NCCc1ccc(O)cc1)=CC3=NCC2`, for which the outcome in experiment [1] was inactive. Also, in experiment [2], the result was Active.

For `NC1=CC2=NCCc3c[nH]c(c32)C1=O`, the result in experiment [2] was Active. Regarding `C[N+]1=C2C=C(NCCc3ccc(O)cc3)C(=O)c3[nH]cc(c32)CC1`, the result in experiment [1] was inactive. In addition, the outcome in experiment [2] was Active. As to `Cn1cc2c3c1C(=O)C(N/C=C/c1ccc(O)cc1)=CC3=NCC2`, the result in experiment [1] and in experiment [2] was Active. Regarding `O=C1C(NC2Cc3cc(Br)c(O)cc3S2)=CC2=NCCc3c[nH]c1c32` (stereo not drawn), the result in experiment [1] and in experiment [2] was Active. With `O=C1C(NCCc2ccc(O)cc2)=CC2=NCCc3c[nH]c1c32`, the result in experiment [1] was inactive. Besides, in experiment [2], the outcome was Active. As for `Cn1cc2c3c1C(=O)C(N)=CC3=[N+](C)CC2`, the result in experiment [1] was inactive. Also, the result in experiment [2] was Active. `O=C1C(N/C=C/c2ccc(O)cc2)=CC2=NCCc3c[nH]c1c32`: the outcome in experiment [1] was inactive. For the same compound, the outcome in experiment [2] was Active. With `Cn1cc2c3c1C(=O)C(N/C=C/c1ccc(O)cc1)=CC3=[N+](C)CC2`, the outcome in experiment [1] was inactive. The result in experiment [2] was Active.
